Results on 29 compounds are retold here after patent US11633394B2, “Substituted alkynylene compounds as anticancer agents” (Aurigene Oncology Limited, priority 2018, dated 2023).

Where only a bound is given, the exact number is not on record here.

For orientation: IC50 means the concentration at which inhibition is half-maximal. The low end stands for greater potency, the high end for weaker potency. Usually viability stands for the share of living cells, or the viability signal relative to a control. A higher viability goes with better survival.

This data set concerns NCI-H1792 cells. The data set is described as follows: Anti proliferative activity in NCI-H1792 cells by XTT assay. In kind it is cell-based. To be noted: H1792 cell line; for IC50: 72 hours incubation; for viability at 30 µM / % Viability (at 30 μM): 72 hours. On the procedure: Example 78: Determination of Anti Proliferative Activity in NCI-H1792 Cells by XTT Assay
NCI-H1792 cells (ATCC CRL-5895) were plated at 2000 cells/well in 96 well flat clear bottom plates (Corning, Cat. No 3596) using complete RPMI media. After 24 hours, compounds of present invention were added to cells from 20 mM stocks made in DMSO (Sigma Cat no. D2650). Each concentration of compound was tested in triplicate with DMSO concentration not exceeding a final percentage of 0.3 in the cells. After 72 hours of incubation in CO2 incubator, XTT (Invitrogen, Cat. no X6493) was added to the wells. XTT was dissolved in serum free media at 1 mg/ml and absorbance readings were taken in spectrophotometer at 465 nm. The data was analysed using graph pad prism software. Positive control (100% survival)=Cells in complete media with 0.3% DMSO; Negative control/blank (0% survival)=Media alone containing 0.3% DMSO.
The compounds of the present invention were screened in the above mentioned assay and the results are tabulated below.
For orientation: Tetrazolium dyes change colour on reduction, which living cells bring about.

Regarding `C=CS(=O)(=O)NC1CC2CC1CN2C(=O)NC(C)C#Cc1ccc(Cl)c(Cl)c1` (stereo not shown) [Example 56], for the setting “Homo sapiens, NCI-H1792, 72 h”, the IC50 fell in the range of 10 to 25 µM and the viability at 30 µM stood at 39%.

As for `C=CC(=O)NC1CCN(C(=O)NC(C)C#Cc2ccc(Cl)c(Cl)c2)CC1` (stereo not shown) [Example 12], for the setting “Homo sapiens, NCI-H1792, 72 h”, the IC50 is over 25 µM and the viability at 30 µM was 83%.

Under “Homo sapiens, NCI-H1792, 72 h”, `C=CC(=O)N1CCN(C(=O)NC(C)C#Cc2ccc3ccccc3c2)CC1` (stereo not shown) [Example 9] showed an IC50 of over 25 µM and a viability at 30 µM of 47%.

Turning to `C=CC(=O)N1CCN(C(=O)NC(C#Cc2ccc(Cl)c(Cl)c2)CC)CC1` (single isomer, unassigned) [Example 2a], the IC50 was over 25 µM and the “% Viability (at 30 μM)” value was determined as 56%.

For the setting “Homo sapiens, NCI-H1792, 72 h”, `C=CC(=O)N1CCN(C(=O)NC(C#Cc2ccc(Cl)c(Cl)c2)CC)CC1` (racemic) [Example 2, 4-acryloyl-N-(1-(3,4-dichlorophenyl)pent-1-yn-3-yl)piperazine-1-carboxamide] had an IC50 of under 10 µM and a viability at 30 µM of 22%.

Where the note is “Homo sapiens, NCI-H1792, 72 h”, `C=CC(=O)N1CCN(C(=O)NC(C)C#Cc2ccc(C)c(Cl)c2)CC1` (stereo not shown) [Example 7] displayed an IC50 of 10 to 25 µM and a viability at 30 µM of 33%.

Turning to `C=CS(=O)(=O)NC1CCN(C(=O)NC(C)C#Cc2ccc(Cl)c(Cl)c2)CC1` (racemic) [Example 49, N-(4-(3,4-dichlorophenyl)but-3-yn-2-yl)-4-(vinylsulfonamido) piperidine-1-carboxamide], for the setting “Homo sapiens, NCI-H1792, 72 h”, the IC50 is 10 to 25 µM and the viability at 30 µM was 35%.

For `C=CC(=O)N1CCN(C(=O)NC(C#Cc2ccc(Cl)c(Cl)c2)CC)CC1` (single isomer, unassigned) [Example 2b], the IC50 is 10 to 25 µM. The viability at 30 µM (Homo sapiens, NCI-H1792, 72 h) came to 57%.

`C/C=C/C(=O)N1CCN(C(=O)NC(C)C#Cc2ccc(Cl)c(Cl)c2)CC1` (stereo not shown) [Example 14] displayed an IC50 (Homo sapiens, NCI-H1792, 72 h) of over 25 µM.

Take `C=CS(=O)(=O)N[C@H]1CC[C@H](C(=O)NC(C)C#Cc2ccc(Cl)c(Cl)c2)CC1` (mixture of isomers) [Example 75, (1r,4r)-N-(4-(3,4-dichlorophenyl)but-3-yn-2-yl)-4-(vinylsulfonamido) cyclohexane-1-carboxamide]: for the setting “Homo sapiens, NCI-H1792, 72 h”, the IC50 was under 10 µM and the viability at 30 µM amounted to 10%.

Under “Homo sapiens, NCI-H1792, 72 h”, `C=CC(=O)Nc1ccc(C(=O)NC(C)C#Cc2ccc(Cl)c(Cl)c2)cc1` (racemic) [Example 76, 4-acrylamido-N-(4-(3,4-dichlorophenyl)but-3-yn-2-yl)benzamide] gave an IC50 of under 10 µM and a viability at 30 µM of 26%.

Under “Homo sapiens, NCI-H1792, 72 h”, `C=CC(=O)N1CCN(C(=O)NC(C)C#Cc2ccc3[nH]ncc3c2)CC1` (stereo not shown) [Example 10] gave an IC50 of over 25 µM and a viability at 30 µM of 89%.

As for `C=CC(=O)N1CCN(C(=O)NC(C)C#Cc2ccc(Cl)c(Cl)c2)CC1` (single isomer, unassigned) [Example 1b, 4-acryloyl-N-(4-(3,4-dichlorophenyl)but-3-yn-2-yl) piperazine-1-carboxamide], the IC50 lay within 10 to 25 µM and the “% Viability (at 30 μM)” value was found to be 37%.

As to `CC(C#Cc1ccc(Cl)c(Cl)c1)NC(=O)N1CCN(C(=O)/C=C/c2ccccc2)CC1` (stereo not shown) [Example 13], for the setting “Homo sapiens, NCI-H1792, 72 h”, the IC50 was over 25 µM.

`C=CC(=O)N1CCN(C(=O)NC(C)C#Cc2cccc3c2cnn3C)CC1` (stereo not shown) [Example 11]: for the setting “Homo sapiens, NCI-H1792, 72 h”, the IC50 is over 25 µM and the viability at 30 µM stood at 91%.

Where the note is “Homo sapiens, NCI-H1792, 72 h”, `C=CC(=O)N1CCN(C(=O)NC(C)C#Cc2ccc(C(F)(F)F)c(Cl)c2)CC1` (stereo not shown) [Example 6] gave a 50% inhibitory concentration (IC50) of 10 to 25 µM and a viability at 30 µM of 19%.

Where the note is “Homo sapiens, NCI-H1792, 72 h”, `C=CC(=O)N[C@H]1CC[C@H](C(=O)NC(C)C#Cc2ccc(Cl)c(Cl)c2)CC1` (stereo partly shown) [Example 73] displayed an IC50 of over 25 µM and a viability at 30 µM of 64%.

Where the note is “Homo sapiens, NCI-H1792, 72 h”, `C=CC(=O)N1CCN(C(=S)NC(C)C#Cc2ccc(Cl)c(Cl)c2)CC1` (racemic) [Example 69, 4-Acryloyl-N-(4-(3,4-dichlorophenyl)but-3-yn-2-yl) piperazine-1-carbothioamide] gave an IC50 of 10 to 25 µM and a viability at 30 µM of 18%.

Take `CC(C)=CC(=O)N1CCN(C(=O)NC(C)C#Cc2ccc(Cl)c(Cl)c2)CC1` (stereo not shown) [Example 15]: under “Homo sapiens, NCI-H1792, 72 h”, the IC50 was over 25 µM and the viability at 30 µM was determined as 90%.

For `CCOC(=O)/C=C/C(=O)N1CCN(C(=O)NC(C)C#Cc2ccc(Cl)c(Cl)c2)CC1` (stereo not shown) [Example 57], for the setting “Homo sapiens, NCI-H1792, 72 h”, the IC50 was under 10 µM and the viability at 30 µM is 17%.

As for `CC(C#Cc1ccc(Cl)c(Cl)c1)NC(=O)N1CCN(C(=O)C(C)Cl)CC1` (stereo not shown) [Example 16], where the note is “Homo sapiens, NCI-H1792, 72 h”, the IC50 was in the range of 10 to 25 µM and the viability at 30 µM amounted to 3%.

Under “Homo sapiens, NCI-H1792, 72 h”, `C=CC(=O)N1CCN(C(=O)NC(C)C#Cc2ccc(Cl)c(Cl)c2)CC1` (racemic) [Example 1, 4-acryloyl-N-(4-(3,4-dichlorophenyl)but-3-yn-2-yl) piperazine-1-carboxamide] gave an IC50 of under 10 µM and a viability at 30 µM of 40%.

With `C=CC(=O)N1CCN(C(=O)NC(C#Cc2ccc(Cl)c(Cl)c2)C(C)C)CC1` (stereo not shown) [Example 4], under “Homo sapiens, NCI-H1792, 72 h”, the IC50 lay within 10 to 25 µM and the viability at 30 µM came out at 15%.

For the setting “Homo sapiens, NCI-H1792, 72 h”, `C=CC(=O)N1CCC(C(=O)NC(C)C#Cc2ccc(Cl)c(Cl)c2)CC1` (stereo not shown) [Example 70] registered an IC50 of under 10 µM and a viability at 30 µM of 33%.

With `CC(C#Cc1ccc(Cl)c(Cl)c1)NC(=O)N1CCN(C(=O)CCl)CC1` (stereo not shown) [Example 19], the IC50 (Homo sapiens, NCI-H1792, 72 h) was under 10 µM.

As for `CC(C#Cc1ccc(Cl)c(Cl)c1)NC(=O)N1CCN(C(=O)/C=C/CN(C)C)CC1` (racemic) [Example 47, (E)-N-(4-(3,4-dichlorophenyl)but-3-yn-2-yl)-4-(4-(dimethylamino)but-2-enoyl) piperazine-1-carboxamide], where the note is “Homo sapiens, NCI-H1792, 72 h”, the half-inhibitory concentration (IC50) is under 10 µM and the viability at 30 µM came to 26%.

Where the note is “Homo sapiens, NCI-H1792, 72 h”, `C=CC(=O)N1CC(N2CCN(C(=O)NC(C)C#Cc3ccc(Cl)c(Cl)c3)CC2)C1` (stereo not shown) [Example 8] came in with an IC50 of under 10 µM and a viability at 30 µM of 35%.

As for `C=CC(=O)NC1CC2CC1CN2C(=O)NC(C)C#Cc1ccc(Cl)c(Cl)c1` (stereo not shown) [Example 55], for the setting “Homo sapiens, NCI-H1792, 72 h”, the concentration for half-maximal inhibition (IC50) is over 25 µM and the viability at 30 µM turned out to be 100%.

Under “Homo sapiens, NCI-H1792, 72 h”, `CC(C#Cc1ccc(Cl)c(Cl)c1)NC(=O)N1CCN(C(=O)/C=C/C(N)=O)CC1` (racemic) [Example 65, (E)-4-(4-amino-4-oxobut-2-enoyl)-N-(4-(3,4-dichlorophenyl)but-3-yn-2-yl) piperazine-1-carboxamide] yielded an IC50 of over 25 µM and a viability at 30 µM of 73%.
